In the NIST ThermoML archive (doi:10.1016/j.fluid.2004.10.023):
± gives the expanded uncertainty stated by the source.

Details: Liquid, Closed cell (Static) method

| SMILES | vapor or sublimation pressure (318.4 K) [kPa] | other results |
| --- | --- | --- |
| CCOC(C)=O [ethyl acetate] | 31.37 ± 0.42 |  |
| C=C(C)C [2-methylpropene] | 538.15 ± 2.3 |  |
| CC(C)C [2-methylpropane] |  | vapor or sublimation pressure (318.39 K): 607.54 ± 2.6 kPa |
| C=CCC [1-butene] |  | vapor or sublimation pressure (318.42 K): 525.55 ± 2.3 kPa |
| C/C=C\C [(Z)-2-butene] | 391.45 ± 1.8 |  |
| CCCC [butane] | 436.55 ± 1.9 |  |
